Data from article PMC10206061, “Suxiao Jiuxin Pill attenuates acute myocardial ischemia via regulation of coronary artery tone” (Frontiers in Pharmacology, 2023).
pKd: −log10 of the molar value. Like-named read-outs stand apart in the source and are kept apart here.

Biological target: T1, Akt1 (Homo sapiens, UniProt P31749)
T1 construct: recombinant human Akt1 protein (1775-KS-010, Bio-Techne)
Test: SPR (Biacore T200, Akt1 amine-coupled on CM5 chip, […] steady-state fit)
Format: binding

T1 sequence (P31749 whole entry): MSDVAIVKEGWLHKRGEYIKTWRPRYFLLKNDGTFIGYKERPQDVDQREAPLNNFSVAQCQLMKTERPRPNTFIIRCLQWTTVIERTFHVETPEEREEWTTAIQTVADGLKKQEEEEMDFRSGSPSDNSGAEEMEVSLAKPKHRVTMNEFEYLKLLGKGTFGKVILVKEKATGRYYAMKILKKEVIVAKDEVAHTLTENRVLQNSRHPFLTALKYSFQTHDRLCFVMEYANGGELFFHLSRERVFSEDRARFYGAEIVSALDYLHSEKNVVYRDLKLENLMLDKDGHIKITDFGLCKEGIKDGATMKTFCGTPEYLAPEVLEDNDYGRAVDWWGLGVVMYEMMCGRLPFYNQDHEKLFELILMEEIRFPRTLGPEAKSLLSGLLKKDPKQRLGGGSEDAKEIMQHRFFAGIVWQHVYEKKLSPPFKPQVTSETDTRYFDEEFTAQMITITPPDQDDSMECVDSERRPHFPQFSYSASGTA

| SMILES | pKd (read-out: Kd) | pKd |
| --- | --- | --- |
| COc1cc2ccc(=O)oc2cc1O [scopoletin] | 4.96 |  |
| CCCC[C@@H]1OC(=O)C2=C1CCC=C2 [senkyunolide A] |  | 3.12 |
